Legend:
Assay type in all cases: cell-based
BHK-21 cells = assay: Anti-fibrosis activity test: inhibition of BHK-21 cell proliferation (CCK-8); details: Mesocricetus auratus, BHK-21, 48 h
In short: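 BHK-21 cells seeded at 2×10^4 cells/mL, allowed to adhere 24 h at 37° C, 5% CO2, then exposed to compounds at graded concentrations in triplicate for 48 h. CCK-8 added for 2 h and absorbance read at 450 nm; inhibition rate taken as (1−Ai/Ao)×100% and IC50 fitted.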

[1] = tested on: human lung fibroblasts HFL1; assay: Anti-fibrosis activity test: inhibition of proliferation of human lung fibroblasts HFL1 (CCK-8); details: Homo sapiens, HFL1, 48 h
In short: (§1)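 Seed 2×10^4 cells/mL; adhere 24 h, 37° C/5% CO2. Compounds, serial concentrations, triplicate, 48 h. CCK-8 2 h, A450. IR=(1−Ai/Ao)×100% vs blank; IC50 fitted. Pirfenidone as positive control.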

[2] = tested on: human hepatic stellate cells LX-2; assay: Anti-fibrosis activity test: inhibition of proliferation of human hepatic stellate cells LX-2 (CCK-8); details: Homo sapiens, 48 h
In short: as §1

[3] = tested on: human fibrosarcoma cells HT-1080; assay: Anti-fibrosis activity test: inhibition of proliferation of human fibrosarcoma cells HT-1080 (CCK-8); details: Homo sapiens, HT-1080, 48 h
In short: as §1

[4] = tested on: human dermal fibroblasts CCC-ESF-1; assay: Anti-fibrosis activity test: inhibition of proliferation of human dermal fibroblasts CCC-ESF-1 (CCK-8); details: Fibroblast
In short: as §1

[5] = tested on: human embryonic lung fibroblast IMR-90; assay: Anti-fibrosis activity test: inhibition of proliferation of human embryonic lung fibroblast IMR-90 (CCK-8)
In short: as §1

[6] = tested on: cardiac fibroblast RAT-iCell-C002; assay: Anti-fibrosis activity test: inhibition of proliferation of cardiac fibroblast RAT-iCell-C002 (CCK-8); details: Cardiac fibroblast, 48 h
In short: as §1

NF-κB = assay: Immunological activity test: inhibition of NF-κB activity; details: initial concentration of 30 μM; a/b isomers given as first/second symbol; read-out: IC50 (μM), inhibitory activity against NF-κB
Source text: Main references for immunological activity test of the compounds of the present application includes: Vogl, S.; Atanasov, A. G.; Binder, M.; Bulusu, M.; Zehl, M.; Fakhrudin, N.; Heiss, E. H.; Picker, P.; Wawrosch, C.; Saukel, J.; Reznicek, G.; Urban, E.; Bochkov, V.; Dirsch, V. M.; Kopp, B. J. Evid-Based Complementary Alern. Med. 2013, ID 395316. Commercially available parthenolide was utilized as a positive control.
The ability of the compounds of the present application to inhibit NF-κB activity was tested at an initial concentration of 30 μM.
The assay data for the compounds of the present application were further analyzed to determine their IC50 values.

[7] = tested on: mouse macrophages (RAW264.7); assay: Lipopolysaccharide-induced NO secretion in macrophages (Griess); details: Mus musculus, RAW264.7, 24 h, RAW264.7, LPS 1 μg/ml, a/b isomers given as first/second symbol, read-out: IC50 (μM), inhibition of lipopolysaccharide-induced NO secretion in macrophages
In short: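 LPS 1 μg/ml, 24 h, RAW264.7 (DMEM/10% FBS); cpds at varied concs. Supernatant NO by Griess, A548; % inhibition vs blank medium.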

[8] = CCK-8, 48 hours after administration
[9] = human lung fibroblasts HFL1, CCK-8, 48 hours
[10] = human fibrosarcoma cells HT-1080, CCK-8, 48 hours
[11] = human dermal fibroblasts CCC-ESF-1, CCK-8, 48 hours
[12] = human embryonic lung fibroblast IMR-90, CCK-8, 48 hours
[13] = cardiac fibroblast RAT-iCell-C002, CCK-8, 48 hours
[14] = Homo sapiens, CCC-ESF-1 cells, 48 h, CCK-8
[15] = Homo sapiens, IMR-90 cells, 48 h, CCK-8

Row | IC50 [3, 10] [mM] | IC50 (NF-κB) [µM] | IC50 ([3]; HT-1080 cells, 48 h, CCK-8) [mM] | IC50 [7] [µM] | SMILES | IC50 (BHK-21 cells; [8]) [mM] | IC50 [1, 9] [mM] | IC50 ([2]; human hepatic stellate cells LX-2, CCK-8, 48 hours) [mM] | IC50 [4, 11] [mM] | IC50 [5, 12] [mM] | IC50 [6, 13] [mM] | IC50 (BHK-21 cells; 48 h, CCK-8) [mM] | IC50 ([1]; HFL1 cells, 48 h, CCK-8) [mM] | IC50 ([2]; LX-2, 48 h, LX-2 cells, CCK-8) [mM] | IC50 [4, 14] [mM] | IC50 [5, 15] [mM] | IC50 ([6]; RAT-iCell-C002 cells, CCK-8) [mM]
1 | 0.05 to 5 | 1 to 10 | – | – | O=C1c2c(n(Cc3ccc(F)cc3F)c3cc(N4CCNCC4)ccc3c2=O)-c2cccn21 [Compound 622a, 4-(2,4-Difluorobenzyl)-6-(piperazin-1-yl)-9H-pyrrolizino[1,2-b]quinoline-9,10(4H)-dione] | 0.05 to 5 | 0.05 to 5 | – | 0.05 to 5 | 0.05 to 5 | 0.05 to 5 | – | – | – | – | – | –
2 | 0.05 to 5 | 1 to 10 | – | – | O=C1c2c(nc3cc(N4CCNCC4)ccc3c2OCc2ccc(F)cc2F)-c2cccn21 [Compound 622b, 9-((2,4-difluorobenzyl)oxy)-6-(piperazin-1-yl)-10H-pyrrolizino[1,2-b]quinolin-10-one] | 0.05 to 5 | – | – | 0.05 to 5 | 0.05 to 5 | 0.05 to 5 | – | – | – | – | – | –
3 | – | 0.1 to 1 | – | – | O=C1c2c(nc3cc(N4CCNCC4)ccc3c2OCc2cc(C(F)(F)F)cc(C(F)(F)F)c2)-c2cccn21 [Compound 631b, 9-((3,5-bis(trifluoromethyl)benzyl)oxy)-6-(piperazin-1-yl)-10H-pyrrolizino[,2-b]quinolin-10-one] | – | – | – | – | – | – | – | – | – | – | – | –
4 | – | – | 0.05 to 5 | 0.1 to 1 | O=C1c2nc3ccccc3c(OCCN3CCNCC3)c2-c2cccn21 [Compound 792b, 11-(2-(piperazin-1-yl)ethoxy)-5H-pyrrolizino[2,1-b]quinolin-5-one] | – | – | – | – | – | – | 0.05 to 5 | 0.05 to 5 | 0.05 to 5 | < 0.05 | 0.05 to 5 | 0.05 to 5
5 | – | – | 0.05 to 5 | 0.1 to 1 | O=C1c2nc3ccccc3c(OCCCN3CCNCC3)c2-c2cccn21 [Compound 793b, 11-(3-(piperazin-1-yl)propoxy)-5H-pyrrolizino[2,1-b]quinolin-5-one] | – | – | – | – | – | – | 0.05 to 5 | 0.05 to 5 | 0.05 to 5 | 0.05 to 5 | 0.05 to 5 | 0.05 to 5
6 | – | – | 0.05 to 5 | 1 to 10 | N#Cc1ccccc1-c1ccc(COc2c3c(nc4ccccc24)C(=O)n2cccc2-3)cc1 [Compound 795b, 4′-(((5-oxo-5H-pyrrolizino[2,1-b]quinolin-11-yl)oxy)methyl)-[1,1′-biphenyl]-2-carbonitrile] | – | – | – | – | – | – | 0.05 to 5 | 0.05 to 5 | 0.05 to 5 | 0.05 to 5 | 0.05 to 5 | 0.05 to 5
7 | – | – | 0.05 to 5 | 1 to 10 | O=C1c2nc3ccccc3c(OCc3ccc(-c4ccccc4)cc3)c2-c2cccn21 [Compound 796b, 11-([1,1′-biphenyl]-4-ylmethoxy)-5H-pyrrolizino[2,1-b]quinolin-5-one] | – | – | – | – | – | – | 0.05 to 5 | 0.05 to 5 | 0.05 to 5 | 0.05 to 5 | 0.05 to 5 | 0.05 to 5

Second part, the compound before the results:

Row | SMILES | IC50 [3, 10] [mM] | IC50 (NF-κB) [µM] | IC50 ([3]; HT-1080 cells, 48 h, CCK-8) [mM] | IC50 [7] [µM] | IC50 (BHK-21 cells; [8]) [mM] | IC50 [1, 9] [mM] | IC50 ([2]; human hepatic stellate cells LX-2, CCK-8, 48 hours) [mM] | IC50 [4, 11] [mM] | IC50 [5, 12] [mM] | IC50 [6, 13] [mM] | IC50 (BHK-21 cells; 48 h, CCK-8) [mM] | IC50 ([1]; HFL1 cells, 48 h, CCK-8) [mM] | IC50 ([2]; LX-2, 48 h, LX-2 cells, CCK-8) [mM] | IC50 [4, 14] [mM] | IC50 [5, 15] [mM] | IC50 ([6]; RAT-iCell-C002 cells, CCK-8) [mM]
8 | CC(C)n1c2c(c(=O)c3ccccc31)C(=O)n1cccc1-2 [Compound 5a, 4-Isopropyl-9H-pyrrolizino[1,2-b]quinoline-9,10(4H)-dione] | 5 to 20 | 10 to 50 | – | – | 5 to 20 | 0.05 to 5 | 0.05 to 5 | 0.05 to 5 | 0.05 to 5 | < 0.05 | – | – | – | – | – | –
9 | CCOCCCOc1c2c(nc3ccccc13)C(=O)n1cccc1-2 [Compound 791b, 11-(3-ethoxypropoxy)-5H-pyrrolizino[2,1-b]quinolin-5-one] | – | – | 0.05 to 5 | 1 to 10 | – | – | – | – | – | – | 0.05 to 5 | 0.05 to 5 | 0.05 to 5 | 0.05 to 5 | 0.05 to 5 | 0.05 to 5
10 | O=C1c2c(c(=O)c3ccccc3n2CCN2CCNCC2)-c2cccn21 [Compound 792a, 6-(2-(Piperazin-1-yl)ethyl)-5H-pyrrolizino[2,1-b]quinoline-5,11(6H)-dione] | – | – | 0.05 to 5 | 0.1 to 1 | – | – | – | – | – | – | 0.05 to 5 | 0.05 to 5 | 0.05 to 5 | < 0.05 | 0.05 to 5 | 0.05 to 5
11 | O=C1c2c(c(=O)c3ccccc3n2CCCN2CCNCC2)-c2cccn21 [Compound 793a, 6-(3-(Piperazin-1-yl)propyl)-5H-pyrrolizino[2,1-b]quinoline-5,11(6H)-dione] | – | – | 0.05 to 5 | 0.1 to 1 | – | – | – | – | – | – | 0.05 to 5 | 0.05 to 5 | 0.05 to 5 | 0.05 to 5 | 0.05 to 5 | 0.05 to 5
12 | O=C1c2c(c(=O)c3ccccc3n2CCCCN2CCNCC2)-c2cccn21 [Compound 794a, 6-(4-(Piperazin-1-yl)butyl)-5H-pyrrolizino[2,1-b]quinoline-5,11(6H)-dione] | – | – | 0.05 to 5 | 1 to 10 | – | – | – | – | – | – | 0.05 to 5 | 0.05 to 5 | 0.05 to 5 | 0.05 to 5 | 0.05 to 5 | 0.05 to 5
13 | O=C1c2nc3ccccc3c(OCCCCN3CCNCC3)c2-c2cccn21 [Compound 794b, 11-(4-(piperazin-1-yl)butoxy)-5H-pyrrolizino[2,1-b]quinolin-5-one] | – | – | 0.05 to 5 | 1 to 10 | – | – | – | – | – | – | 0.05 to 5 | 0.05 to 5 | 0.05 to 5 | 0.05 to 5 | 0.05 to 5 | 0.05 to 5
14 | N#Cc1ccccc1-c1ccc(Cn2c3c(c(=O)c4ccccc42)-c2cccn2C3=O)cc1 [Compound 795a, 4′-((5,11-Dioxo-5,11-dihydro-6H-pyrrolizino[2,1-b]quinolin-6-yl)methyl)-[1,1′-biphenyl]-2-carbonitrile] | – | – | 0.05 to 5 | 1 to 10 | – | – | – | – | – | – | 0.05 to 5 | 0.05 to 5 | 0.05 to 5 | 0.05 to 5 | 0.05 to 5 | 0.05 to 5
15 | O=C1c2c(c(=O)c3ccccc3n2Cc2ccc(-c3ccccc3)cc2)-c2cccn21 [Compound 796a, 6-([1,1′-Biphenyl]-4-ylmethyl)-5H-pyrrolizino[2,1-b]quinoline-5,11(6H)-dione] | – | – | 0.05 to 5 | 1 to 10 | – | – | – | – | – | – | 0.05 to 5 | 0.05 to 5 | 0.05 to 5 | 0.05 to 5 | 0.05 to 5 | 0.05 to 5

Reference: US11040028B2, “Penicinotam derivative, preparation method and use thereof” (OCEAN UNIVERSITY OF CHINA, priority 2017, dated 2021)
